Laboratory results reported in patent publication US9205064B2, “Methods for the diagnosis of oncological disorders using epimetabolic shifters, multidimensional intracellular molecules, or environmental influencers” (Berg LLC, priority 2009, dated 2015).

Experiments:
SKBr3 = assay: Nexin assay for apoptosis (Annexin-V-PE/7-AAD, flow cytometry); type: cell-based, human; details: 50 μM or 100 μM Q10, 24 hours
Description: The 7AAD dye will enter into cells with permeabilized cell membranes; primarily those cells that are in late apoptosis. Annexin-V-PE is a dye that binds to Phosphotidyl serine, which is exposed on the outer surface of the plasma membrane in early apoptotic cells. The Nexin reagent thus can be used to differentiate between different populations of apoptotic cells in a flow cytometer.

[1] = tested on: Pancreatic Cancer Cells (PaCa2); assay: Real-time PCR Apoptosis Array; type: cell-based; details: 100 uM Q10, various times
Description: Experiments were carried out essentially as described above.

[2] = tested on: HepG2 (liver cancer) cells; assay: Real-time PCR Apoptosis Array; type: cell-based
Description: (§1) The treatment was initiated on 1×10^5 cells per well, following the procedure utilized in the PaCa2 cells (above, Examples 9-11). However, the total amount of RNA that was extracted from these samples was lower than expected. Reverse transcription is normally done using 1 μg of total RNA (determined by measurement at 260 nm). The maximum volume that can be used per reverse transcription is 8 μl.
However, the array for 48 hours was run choosing FAM as the fluorophore instead of SYBR. Both FAM and SYBR fluoresce at the same wavelength.

[3] = tested on: HepG2 (liver cancer) cells; assay: Real-time PCR Diabetes Array; type: cell-based
Description: as §1

[4] = tested on: oncogenic and normal cell lines; assay: Minimal CoQ10 concentration and treatment time for induction of early apoptosis (Bcl-2, caspase activation, annexin V); type: cell-based
Description: CoQ10 treatment of cells was carried out as described in detail below in the Materials and Methods. Induction of apoptosis was assessed in the treated cells by monitoring indicators of early apoptosis (e.g., Bcl-2 expression, caspase activation and by using annexin V assays) as described below. From these studies, the minimal CoQ10 dosage, e.g., concentration of CoQ10 and time of treatment, required to induce apoptosis in the panel of cell lines was determined.
Cells were cultured in T-75 flasks with relevant medium supplemented with 10% Fetal Bovine Serum (FBS), 1% PSA (penicillin, streptomycin, amphotericin B) (Invitrogen and Cellgro) in a 37° C. incubator with 5% CO2 levels until 70-80% confluence was reached. To harvest cells for treatment, flasks were primed with 1 mL Trypsin, aspirated, trypsinized with an additional 3 mL, and incubated at 37° C. for 3-5 minutes. Cells were then neutralized with an equal volμme of media and the subsequent solution was centrifuged at 10,000 rpm for 8 minutes. The supernatant was aspirated and the cells were resuspended with 8.5 ml of media. A mixture of 500 ul of the resuspension and 9.5 ml of […] was read twice by a coulter counter and the appropriate number of cells to be seeded into each dish was determined Control and concentration ranging from 0-200 μM groups were examined in triplicate. From a 500 μM CoQ-10 stock solution, serial dilutions were performed to achieve desired experimental concentration in appropriate dishes. Dishes were incubated in a 37° C. incubator with 5% CO2 levels for 0-72 hours depending on cell type and experimental protocol.
Following cell treatment incubation period was complete, protein isolation was performed. Dishes of all treatment groups were washed twice with 2 ml, and once with 1 ml of ice cold 1× Phosphate Buffered Saline (PBS). The PBS was aspirated from the dishes after the initial 2 washes only. Cells were gently scraped and collected into microcentrifuge tubes using the final volume from the third wash and centrifuged at 10,000 rpm for 10 minutes. After centrifugation, the supernatant was aspirated and the pellet was lysed with 50 uL of lysis buffer (1 uL of protease and phosphotase inhibitor for every 100 uL of lysis buffer). Samples were then frozen overnight at −20° C.
After the cell treatment incubation period was complete, protein isolation was performed. Flasks of all treatment groups were washed twice with 5 mL, and once with 3 mL of ice cold 1×PBS. The PBS was aspirated from the flasks after the first 2 washes only. Cells were gently scraped and collected into 15 mL centrifuge tubes using the final volume from the third wash and centrifuged for at 10,000 rpm for 10 minutes. After centrifugation, the supernatant was aspirated and the pellet was lysed with an appropriate amount of lysis buffer (1 uL of protease and phosphotase inhibitor for every 100 uL of lysis buffer). Lysis buffer volume was dependent on pellet size. Samples were transferred in microcentrifuge tubes and frozen overnight at −20° C.
Samples were thawed at […] and sonicated to ensure homogenization the day following protein isolation. Protein quantification was performed using the micro BCA protein assay kit (Pierce). To prepare samples for Immuno-blotting, a 1:19 solution of betamercaptoethanol (Sigma) to sample buffer (Bio-Rad) was prepared. Samples were diluted 1:1 with the betamercaptoethanol-sample buffer solution, boiled at 95° C. for 5 minutes, and frozen overnight at −20° C.
The volume of sample to load per well was determined using the raw mean concentration of protein obtained from the BCA protein assay. Approximately 30-60 μg of protein were loaded for each treatment time point. Proteins were run in triplicate on 12% Tris-HCl ready gels (Bio-Rad) or hand cast gels in 1× running buffer at 85 and 100 volts. Proteins were then transferred onto nitrocellulose paper for an hour at 100 volts, and blocked for another hour in a 5% milk solution. […]

COC1=C(OC)C(=O)C(C/C=C(\C)CC/C=C(\C)CC/C=C(\C)CC/C=C(\C)CC/C=C(\C)CC/C=C(\C)CC/C=C(\C)CC/C=C(\C)CC/C=C(\C)CCC=C(C)C)=C(C)C1=O [Q10, Coenzyme Q10]
early and late apoptosis (SKBr3): did not show any significant increases | mRNA of ABL1, AKT1, Bcl2L1, BclAF1, CASP1, CASP2, CASP6, CIDEA, FADD, LTA, TNF, TNFSF10A and TNFSF10 [1]: modulated | genes regulated in the Apoptosis Arrays ([2]; 100 μM Q10, gene BAG1): BAG1 | genes regulated in the Apoptosis Arrays ([2]; 100 μM Q10, gene CASP9): CASP9 | genes regulated in the Apoptosis Arrays ([2]; 100 μM Q10, gene TNFRSF1A): TNFRSF1A | genes regulated in the Diabetes Arrays ([3]; 100 μM Q10, PPARGC1A gene): PPARGC1A | genes regulated in the Diabetes Arrays ([3]; 100 μM Q10, PRKAA1 gene): PRKAA1 | genes regulated in the Diabetes Arrays ([3]; 100 μM Q10, SNAP25 gene): SNAP25 | Indication of Early apoptosis (Bcl-2, annexin V, or caspase activation) ([4]; BONE: Ewing's sarcoma (NCI)): Extremely strong | Minimal CoQ10 Concentration for early apoptosis ([4]; BONE: Ewing's sarcoma (NCI)): 5 µM | Minimal treatment Time for early apoptosis ([4]; BONE: Ewing's sarcoma (NCI)): 1 h | Indication of Early apoptosis (Bcl-2, annexin V, or caspase activation) ([4]; BONE: Osteosarcoma (143b)): Very Strong | Minimal CoQ10 Concentration for early apoptosis ([4]; BONE: Osteosarcoma (143b)): 50 µM | Minimal treatment Time for early apoptosis ([4]; BONE: Osteosarcoma (143b)): 48 h | Indication of Early apoptosis (Bcl-2, annexin V, or caspase activation) ([4]; BREAST: BT-20): Strong | Minimal CoQ10 Concentration for early apoptosis ([4]; BREAST: BT-20): 100 µM | Minimal treatment Time for early apoptosis ([4]; BREAST: BT-20): 48 h | Indication of Early apoptosis (Bcl-2, annexin V, or caspase activation) ([4]; BREAST: MCF-7): Strong | Minimal CoQ10 Concentration for early apoptosis ([4]; BREAST: MCF-7): 50 µM | Minimal treatment Time for early apoptosis ([4]; BREAST: MCF-7): 48 h | Indication of Early apoptosis (Bcl-2, annexin V, or caspase activation) ([4]; BREAST: MDA MB 468): Strong | Minimal CoQ10 Concentration for early apoptosis ([4]; BREAST: MDA MB 468): 100 µM | Minimal treatment Time for early apoptosis ([4]; BREAST: MDA MB 468): 48 h | Indication of Early apoptosis (Bcl-2, annexin V, or caspase activation) ([4]; BREAST: SkBr-3): Very Strong | Minimal CoQ10 Concentration for early apoptosis ([4]; BREAST: SkBr-3): 50 µM | Minimal treatment Time for early apoptosis ([4]; BREAST: SkBr-3): 24 h | Indication of Early apoptosis (Bcl-2, annexin V, or caspase activation) ([4]; BREAST: ZR-75): Slight | Minimal CoQ10 Concentration for early apoptosis ([4]; BREAST: ZR-75): 200 µM | Minimal treatment Time for early apoptosis ([4]; BREAST: ZR-75): 72 h | Indication of Early apoptosis (Bcl-2, annexin V, or caspase activation) ([4]; Fibroblasts (nFib)): None | Indication of Early apoptosis (Bcl-2, annexin V, or caspase activation) ([4]; Heart: Aortic smooth muscle (HASMC)): None | Indication of Early apoptosis (Bcl-2, annexin V, or caspase activation) ([4]; Keratinocytes (Heka, Hekn)): None | Indication of Early apoptosis (Bcl-2, annexin V, or caspase activation) ([4]; LIVER: Hep3B): Very Strong | Minimal CoQ10 Concentration for early apoptosis ([4]; LIVER: Hep3B): 50 µM | Minimal treatment Time for early apoptosis ([4]; LIVER: Hep3B): 24 h | Indication of Early apoptosis (Bcl-2, annexin V, or caspase activation) ([4]; LIVER: HepG2): Very Strong | Minimal CoQ10 Concentration for early apoptosis ([4]; LIVER: HepG2): 50 µM | Minimal treatment Time for early apoptosis ([4]; LIVER: HepG2): 24 h | Indication of Early apoptosis (Bcl-2, annexin V, or caspase activation) ([4]; Mammary fiboblasts: 184A1 and 184B5): None | Indication of Early apoptosis (Bcl-2, annexin V, or caspase activation) ([4]; Melanocytes (Hema, LP)): None | Indication of Early apoptosis (Bcl-2, annexin V, or caspase activation) ([4]; Melanoma (Skmel 2)): Very Strong | Minimal CoQ10 Concentration for early apoptosis ([4]; Melanoma (Skmel 2)): 25 µM | Minimal treatment Time for early apoptosis ([4]; Melanoma (Skmel 2)): 24 h | Indication of Early apoptosis (Bcl-2, annexin V, or caspase activation) ([4]; Melanoma (Skmel 28)): Strong | Minimal CoQ10 Concentration for early apoptosis ([4]; Melanoma (Skmel 28)): 20 µM | Minimal treatment Time for early apoptosis ([4]; Melanoma (Skmel 28)): 24 h | Indication of Early apoptosis (Bcl-2, annexin V, or caspase activation) ([4]; PANCREAS: PaCa2): Very Strong | Minimal CoQ10 Concentration for early apoptosis ([4]; PANCREAS: PaCa2): 25 µM | Minimal treatment Time for early apoptosis ([4]; PANCREAS: PaCa2): 24 h | Indication of Early apoptosis (Bcl-2, annexin V, or caspase activation) ([4]; PROSTATE: PC3): Very Strong | Minimal CoQ10 Concentration for early apoptosis ([4]; PROSTATE: PC3): 25 µM | Minimal treatment Time for early apoptosis ([4]; PROSTATE: PC3): 24 h | Indication of Early apoptosis (Bcl-2, annexin V, or caspase activation) ([4]; SCC, Squamous cell carcinoma): Very Strong | Minimal CoQ10 Concentration for early apoptosis ([4]; SCC, Squamous cell carcinoma): 25 µM | Minimal treatment Time for early apoptosis ([4]; SCC, Squamous cell carcinoma): 24 h | effect on normal cells, including keratinocytes and dermal fibroblasts ([4]; normal tissue environment): increased proliferation and migration | efficacy of treatment (induction of apoptosis) across cell types ([4]; panel of oncogenic and normal cell lines): greater in cell types that exhibited increased oncogenicity and/or greater metastatic potential
